Data published in US20230041228A1, “Small Molecule Inhibition of Micro-RNA-210 Reprograms an Oncogenic Hypoxic Circuit” (University of Florida Research Foundation, Incorporated, priority 2017, published 2023).
“Also recorded” adds a separate entry of the source.

Experiments:
miR-210 [1] = experiment: RT-qPCR of miR-210 (mature, pri-, pre-) in MDA-MB-231 cells under hypoxic conditions; type: cell-based
Procedure: (§1) MDA-MB-231 cells were cultured in RPMI 1640 medium supplemented with 10% FBS (Sigma), 1× Glutagro (Corning), and 1× Pen/Strep (MP Biomedicals, LLC) (growth medium). Cells cultured in normoxia were maintained at 37° C. in ambient atmosphere (˜21% O2) with 5% CO2. Cells cultured in hypoxia were maintained at 37° C., <1% O2 in a nitrogen filled hypoxic chamber (Billups-Rothenberg, Inc.), and 5% CO2.
(§2) Approximately 200-600 ng of RNA was used in subsequent reverse transcription reactions using a miScript II RT Kit (Qiagen) or a qScript cDNA Synthesis Kit (Quanta Biosciences) per the manufacturers' recommended protocols. Primers for RT-qPCR were purchased from Integrated DNA Technologies (IDT) or Eurofins (Table S1) and used without further purification. RT-qPCR samples were prepared using Power SYBR Green PCR Master Mix (Applied Biosystems) and completed by using a 7900HT Fast Real Time PCR System (Applied Biosystems). Expression levels of RNA were normalized to U6 small nuclear RNA, GAPDH mRNA, or 18S rRNA.

pre-miR-210 RNA = experiment: In solution fluorescent binding assay
Procedure: Dissociation constants for the binding of pre-miR-210 RNA to Hoechst 33342 and Targapremir-210 were determined using an in solution, fluorescent binding assay. RNA was folded in 1× Binding Buffer (8 mM Na2HPO4, 190 mM NaCl, 1 mM EDTA, and 40 μg/mL BSA) at 60° C. for 5 min and then allowed to cool to room temperature for 10 min. Hoechst 33342 or Targapremir-210 was added to a final concentration of 500 nM. Next, 1:2 serial dilutions were performed in 1× Binding Buffer supplemented with 500 nM of Hoechst 33342 or Targapremir-210. Solutions were incubated for 30 min and then transferred to Corning non-binding surface 96-well black plates. Fluorescence intensity was then measured on a Bio-Tek FLX-800 plate reader. Change in fluorescence intensity was fit as a function of RNA concentration with equation 1: […]
where I and I0 are the observed fluorescence intensity in the presence and absence of RNA, respectively, Δε is the difference between the fluorescence intensity in the absence and in the presence of infinite RNA concentration, [FL]0 and [RNA]0 are the concentrations of compound (Hoechst 33342 or Targapremir-210) and RNA, respectively, and Kt is the dissociation constant.

GPD1L mRNA = experiment: RT-qPCR of resected tumors, GPD1L; type: in vivo, NOD/SCID mice; conditions: compared to untreated tumors
Procedure: as §2
(§3) NOD/SCID mice (B6.CB17-Prkdcscid/Sz, Jackson Laboratories) were housed in the Scripps Florida vivarium. All live animal experiments were approved by the Scripps Florida Institutional Animal Care and Use Committee. Two sets of experiments were completed: treatment of MDA-MB-231-GFP-luc cells prior to implantation and treatment of mice post-tumor implantation. For pre-treatment of tumor cells, MDA-MB-231-GFP-luc cells (5×10^6) were treated with or without Targapremir-210 (200 nM) or anti-miR-210 antagomir (500 nM) for 48 h pre-implantation. […]
(§4) Tumor growth was monitored weekly post-implantation by i.p. injection of 200 μL D-luciferin (15 mg/mL) and imaging with an IVIS 200 system. […] Levels of mature miR-210, HIF-1a, and GPLDL1 RNAs were measured by RT-qPCR as described above.

[2] = test system: panel of hypoxia-associated miRNAs (n=28); experiment: Cellular selectivity, RT-qPCR of hypoxia-associated miRNAs; type: cell-based; conditions: 200 nM, MDA-MB-231 cells
Procedure: as §1, §2

[3] = test system: 15 miRNAs that have an RNA isoform that binds Targapremir-210; experiment: Cellular Chem-CLIP, RNA isoforms; type: cell-based; conditions: MDA-MB-231 cells; miR-497, miR-1273c, miR-3174, miR-107
Procedure: (§5) MDA-MB-231 cells were grown in growth medium as monolayers in 60 mm dishes to ˜60% confluency. […] Cells were immediately placed under hypoxic conditions for 48 h, and total RNA was extracted using a Quick-RNA MiniPrep (Zymo Research) per the manufacturer's protocol. Approximately 10 μg of total RNA was incubated with 100 μL of streptavidin-agarose beads in 1× PBS for 1 h at room temperature with gentle shaking. The solution was removed and the beads were washed 8 times with 300 μL of in 1× PBS. Bound RNA was released from the beads by heating in 1× Elution Buffer (95% formamide, 10 mM EDTA, pH 8.2) at 60° C. for 20 min. The pulled-down RNA was purified using a Quick-RNA MiniPrep Kit (Zymo Research) and then used for subsequent RT and qPCR reactions as described above.
(§6) The relative fold-change in the amount of an RNA before and after pull-down was calculated by the ΔΔCt method as shown in equation 1: […]
(§7) Relative Fold−Change:2^−(ΔC^t ^before pull-down−Δc^t ^after pull-down) (1)
(§8) where the “ΔCt before pull-down” is the difference between the Ct values for the RNA of interest and a housekeeping gene (U6 small nuclear RNA, GAPDH mRNA, or 18S rRNA) in total RNA isolated from cells and “ΔCtafter pull-down” is the difference between the Ct values the RNA of interest and the same housekeeping gene after pull-down.

[4] = test system: hypoxia-associated miRNAs; experiment: Cellular Chem-CLIP and C-Chem-CLIP, hypoxia-associated miRNAs; type: cell-based
Procedure: as §5, §6, §7, §8

Topoisomerase II = target: T1, Topoisomerase II (Homo sapiens, UniProt P11388); experiment: In vitro topoisomerase inhibition assay; type: biochemical; conditions: 200 nM
T1 construct: purchased TopoGEN, Inc
T1 sequence (P11388 whole entry): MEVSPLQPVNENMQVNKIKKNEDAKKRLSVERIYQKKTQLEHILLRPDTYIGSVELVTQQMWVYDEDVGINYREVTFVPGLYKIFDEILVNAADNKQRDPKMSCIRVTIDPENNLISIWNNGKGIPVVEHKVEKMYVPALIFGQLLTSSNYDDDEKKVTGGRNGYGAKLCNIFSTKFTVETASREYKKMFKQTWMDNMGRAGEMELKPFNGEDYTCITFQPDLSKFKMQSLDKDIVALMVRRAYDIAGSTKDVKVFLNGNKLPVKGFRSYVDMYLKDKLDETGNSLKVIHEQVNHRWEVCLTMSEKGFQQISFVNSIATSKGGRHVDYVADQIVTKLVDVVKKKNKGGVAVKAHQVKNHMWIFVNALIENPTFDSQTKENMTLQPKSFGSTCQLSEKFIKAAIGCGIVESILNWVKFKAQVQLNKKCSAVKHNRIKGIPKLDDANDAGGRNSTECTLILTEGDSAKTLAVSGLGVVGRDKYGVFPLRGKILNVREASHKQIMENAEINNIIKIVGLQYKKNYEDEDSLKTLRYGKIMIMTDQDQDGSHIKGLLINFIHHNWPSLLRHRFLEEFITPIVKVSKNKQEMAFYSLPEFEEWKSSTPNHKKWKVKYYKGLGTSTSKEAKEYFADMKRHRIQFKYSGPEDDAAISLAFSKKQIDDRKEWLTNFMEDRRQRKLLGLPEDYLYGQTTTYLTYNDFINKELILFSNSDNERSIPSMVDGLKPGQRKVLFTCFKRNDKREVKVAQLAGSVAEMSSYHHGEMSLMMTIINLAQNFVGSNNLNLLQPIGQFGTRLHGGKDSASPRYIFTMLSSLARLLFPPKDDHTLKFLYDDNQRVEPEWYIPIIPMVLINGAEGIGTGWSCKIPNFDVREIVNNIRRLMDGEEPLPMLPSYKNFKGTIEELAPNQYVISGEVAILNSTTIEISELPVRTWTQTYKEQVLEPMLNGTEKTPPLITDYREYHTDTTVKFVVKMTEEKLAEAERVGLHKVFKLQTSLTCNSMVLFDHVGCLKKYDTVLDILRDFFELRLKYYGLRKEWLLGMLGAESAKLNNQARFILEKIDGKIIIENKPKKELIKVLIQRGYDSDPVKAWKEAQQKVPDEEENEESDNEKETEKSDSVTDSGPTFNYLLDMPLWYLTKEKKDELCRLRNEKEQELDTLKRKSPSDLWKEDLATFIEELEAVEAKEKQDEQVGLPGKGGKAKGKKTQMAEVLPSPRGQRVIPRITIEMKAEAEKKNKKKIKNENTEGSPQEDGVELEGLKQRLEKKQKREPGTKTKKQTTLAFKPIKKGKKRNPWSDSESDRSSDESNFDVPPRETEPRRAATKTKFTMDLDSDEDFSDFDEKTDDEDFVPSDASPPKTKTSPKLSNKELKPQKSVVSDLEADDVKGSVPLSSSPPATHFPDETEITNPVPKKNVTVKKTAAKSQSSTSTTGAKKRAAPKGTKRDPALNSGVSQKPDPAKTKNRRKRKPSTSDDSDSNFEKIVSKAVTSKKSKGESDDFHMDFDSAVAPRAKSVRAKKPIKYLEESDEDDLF
Procedure: Topoisomerase II inhibitory activity was measured using a Topoisomerase II Drug Screening Kit (TopoGEN, Inc.) per the manufacturer's protocol. Taragpremir-210 (200 nM) was added to 300 ng of DNA in 1× Complete Buffer (50 mM Tris-HCl, pH 8, 150 mM NaCl, 10 mM MgCl2, 0.5 mM dithiothreitol, 30 μg/mL BSA, and 2 mM ATP), followed by addition of 7.5 U of Topoisomerase II enzyme. The samples were incubated for 30 min at 37° C., and the reaction was stopped by the addition of 2 µL of 10% sodium dodecyl sulfate (SDS). Proteinase K (50 μg/mL) was then added and the solution was incubated for 15 min at 37° C. Topoisomers were separated on 1% agarose gels with or without 0.5 μg/mL ethidium bromide. Note, for gels containing ethidium bromide, the 1× TAE running buffer was also supplemented with 0.5 μg/mL ethidium bromide. Gels prepared without ethidium bromide were post-stained (0.5 μg/mL ethidium bromide). Both types of gels were destained in 1× TAE for 15 min, and the DNA products were visualized using a Bio-Rad Gel Doc XR+imaging system.

[5] = test system: MDA-MB-231-GFP-Luc tumors; experiment: TNBC mouse xenograft model, tumor burden; type: in vivo, NOD/SCID mice; conditions: 200 nM, cell pre-treatment or single injection 24 h post-implantation; 21 days
Procedure: NOD/SCID mice (B6.CB17-Prkdcscid/Sz, Jackson Laboratories) were housed in the Scripps Florida vivarium. All live animal experiments were approved by the Scripps Florida Institutional Animal Care and Use Committee. Two sets of experiments were completed: treatment of MDA-MB-231-GFP-luc cells prior to implantation and treatment of mice post-tumor implantation. For pre-treatment of tumor cells, MDA-MB-231-GFP-luc cells (5×10^6) were treated with or without Targapremir-210 (200 nM) or anti-miR-210 antagomir (500 nM) for 48 h pre-implantation. A 100 μL PBS/Matrigel (1:1; BD Biosciences) cell suspension was subcutaneously transplanted into mouse breast fat pads. Alternatively, mouse breast fat pads were injected with a 100 μL PBS/Matrigel (1:1) cell suspension (5×10^6MDA-MB-231-GFP-luc cells) followed by intraperitoneal (i.p) injection of Targapremir-210 (100 μL of 200 nM) or anti-miR-210 antagomir (100 μL of 500 nM) 24 h post-transplantation.
Tumor growth was monitored weekly post-implantation by i.p. injection of 200 μL D-luciferin (15 mg/mL) and imaging with an IVIS 200 system. Tumors were resected 21 days post-transplantation following euthanasia. Levels of mature miR-210, HIF-1a, and GPLDL1 RNAs were measured by RT-qPCR as described above.

HIF-1α mRNA [6] = experiment: RT-qPCR of HIF-1α mRNA in hypoxic MDA-MB-231 cells; type: cell-based; conditions: 200 nM
Procedure: as §1, §2

[7] = test system: miR-210 hairpin precursor; experiment: Cellular Chem-CLIP and C-Chem-CLIP, miR-210; type: cell-based; conditions: read-out: concentration required to inhibit ˜50% of the reaction of Targapremir-210-CA-Biotin with the miR-210 hairpin precursor (C-Chem-CLIP); MDA-MB-231 cells, 200 nM probe
Procedure: as §5, §6, §7, §8

miR-210 [8] = experiment: RT-qPCR of resected tumors, miR-210; type: in vivo, NOD/SCID mice; conditions: compared to untreated tumors
Procedure: as §2, §3, §4

GPD1L = experiment: RT-qPCR of GPD1L in hypoxic MDA-MB-231 cells; type: cell-based; conditions: 200 nM
Procedure: as §1, §2

[9] = target: pre-miR-210 Dicer site, 5′ACU3′/3′UCA5′; conditions: 5′ACU3′/3′UCA5′ motif; reference 15; read-out: Kd, binding affinity for the pre-miR-210 Dicer site; cited from earlier work
[10] = Tumor localization by fluorescent microscopy; type: in vivo, NOD/SCID mice; conditions: single i.p. injection
Procedure: Resected tumor samples were frozen using O.C.T. Compound (Tissue-Tek) over dry ice. Frozen tissues were sectioned by cryostat and transferred to microscope slides. Fluorescent microscopic analysis was carried out using a Leica DMI3000 B upright fluorescent microscope.

MDA-MB-231 cells = experiment: Apoptosis by Annexin V/propidium iodide staining and flow cytometry; type: cell-based; conditions: 200 nM
Procedure: as §1

HIF-1α mRNA [11] = experiment: RT-qPCR of resected tumors, HIF-1α; type: in vivo, NOD/SCID mice; conditions: compared to untreated tumors
Procedure: as §2, §3, §4

[12] = test system: RNA in which the Dicer site was ablated; conditions: reference 15; cited from earlier work
[13] = test system: miRNAs with predicted compound binding sites; experiment: Cellular selectivity, RT-qPCR of RNA isoforms; type: cell-based; conditions: hypoxic MDA-MB-231 cells
Procedure: as §1, §2

[14] = test system: miR-210 hairpin precursor (pre-miR-210), Dicer processing; experiment: In vitro Dicer protection assay; type: biochemical; conditions: recombinant human Dicer, gel quantification
Procedure: The miR-210 precursor was 5′-end labeled with [γ-^32P] ATP and T4 polynucleotide kinase as previously described^4. The RNA was then folded in 1× Reaction Buffer (Genlantis) by heating at 60° C. for 5 min and slowly cooling to room temperature, where it was then supplemented with 1 mM ATP and 2.5 mM MgCl2. Targapremir-210 was added to the reaction mixture and the samples were allowed to incubate at room temperature for 15 min. Recombinant human Dicer enzyme (Genlantis) was added to a final concentration of 0.01 U/μL and the samples were incubated for an additional 30 min at 37 ° C. Reactions were stopped by adding in 2× Gel Loading Buffer (8 M urea, 50 mM EDTA, 0.05% (w/v) bromophenol blue, 0.05% (w/v) xylene cyanol). To generate sequencing markers, pre-miR-210 was digested with RNase T1 (0.125 U/μL) in T1 Buffer (25 mM sodium citrate, pH 5, 7 M urea, and 1 mM EDTA) for 20 min at room temperature. An RNA hydrolysis ladder was prepared by incubating RNA in 1× RNA Hydrolysis Buffer (50 mM NaHCO3, 1 mM EDTA, pH 9.4) at 95° C. for 5 min. Cleavage products were resolved on a denaturing 15% polyacrylamide gel, which was imaged using a Molecular Dynamics Typhoon phosphorimager and quantified with Bio-Rad's QuantityOne software.

[15] = test system: miR-96 and miR-210 levels; experiment: Effect on miR-96 and miR-210 levels under hypoxic conditions; type: cell-based
[16] = 200 nM, hypoxic MDA-MB-231 cells

CCOc1ccc(-c2nc3ccc(-c4nc5ccc(N6CCN(C)CC6)cc5[nH]4)cc3[nH]2)cc1 [Hoechst 33342, reference compound]
mature miR-210 levels (miR-210 [1]; [16]): no statistically significant effect
affinity for pre-miR-210 (pre-miR-210 RNA; up to 5000 nM pre-miR-210 added): No saturable binding was observed

CN1CCN(c2ccc3nc(-c4ccc5[nH]c(-c6cccc(OCCCC(=O)NCCCN=[N+]=[N-])c6)nc5c4)[nH]c3c2)CC1 [Targapremir-210]
GPD1L levels in resected tumors (GPD1L mRNA): doubled
effect on levels of hypoxia-associated miRNAs [2]: affected only levels of mature miR-210
miRNAs with RNA isoform bound in cells (Chem-CLIP) [3]: only four of the miRNAs are bound
highest relative fold pull-down among hypoxia-associated miRNAs other than miR-210 ([4]; Chem-CLIP probe pull-down, three of 28 enriched (miR-181a, miR-205, miR-206)): ~2.8 fold
abundance of other hypoxia-associated miRNAs as a function of Targapremir-210 concentration (C-Chem-CLIP) ([4]; MDA-MB-231 cells): did not change
inhibition of topoisomerase enzymatic activity (Topoisomerase II): did not inhibit topoisomerase activity
tumor growth (luciferase signal intensity, mass of the resected tumor) [5]: significantly decreased tumor growth
reduction of HIF-1α mRNA levels (HIF-1α mRNA [6]): ~75%
increase in pre-miR-210 levels (miR-210 [1]; [16]): ~2.6 fold
increase in pri-miR-210 levels (miR-210 [1]; [16]): ~3 fold
IC50 (miR-210 [1]; Homo sapiens, MDA-MB-231 cells, hypoxic conditions, RT-qPCR, read-out: IC50, decrease of mature miR-210 levels): ~200 nM
IC50 [7]: 200 nM
reduction of miR-210 levels in resected tumors (miR-210 [8]): ~90%
increase of GPD1L levels (GPD1L): ~4 fold
Kd [9]: ~200 nM
compound localization in tumor [10]: able to reach the tumor and sustain for the entire 21-day period
apoptosis (MDA-MB-231 cells; hypoxic conditions): induced apoptosis
apoptosis with overexpression of pre-miR-210 (MDA-MB-231 cells; hypoxic conditions, pre-miR-210 overexpressed): allowed cells to escape apoptosis
apoptosis (MDA-MB-231 cells; normoxia): did not induce apoptosis
binding to in vitro transcribed pre-miR-210 (pre-miR-210 RNA; compared with binding to the Dicer site motif): binds similarly
reduction of HIF-1α levels in resected tumors (HIF-1α mRNA [11]): ~75%
binding to RNA in which the Dicer site was ablated [12]: did not bind
effect on expression levels of miRNAs with predicted compound binding sites [13]: only affected levels of miR-210; also recorded: no statistically significant effect
inhibition of Dicer processing of pre-miR-210 in vitro [14]: inhibited pre-miR-210 processing at nanomolar concentrations
effect on miR-96 and miR-210 levels [15]: only affects miR-210

Targaprimir-96 [reference compound]
effect on miR-96 and miR-210 levels [15]: only affects miR-96
